Laboratory results taken from ChEMBL document CHEMBL3297698, “Novel synthetic route for antimalarial benzo[a]phenoxazine derivative SSJ-183 and two active metabolites” (Bioorg Med Chem, 2014).

Assays:
[1] = tested on: Plasmodium falciparum; assay: Antimalarial activity against Plasmodium falciparum […] assessed as inhibition of [3H]hypoxanthine incorporation preincubated for 48 hrs measured 24 hrs post [3H]hypoxanthine addition by liquid scintillation counting; assay type: functional, organism-based
[2] = tested on: Plasmodium falciparum; assay: Antimalarial activity against Plasmodium falciparum K1 assessed as inhibition of [3H]hypoxanthine incorporation preincubated for 48 hrs measured 24 hrs post [3H]hypoxanthine addition by liquid scintillation counting; assay type: functional, organism-based

Compound	IC50 [1] [nM]	IC50 [2] [nM]
CCN(CC)c1ccc2nc3c4ccccc4/c(=N\c4ccncc4)cc-3oc2c1	11	6.5
CCNc1ccc2nc3c4ccccc4/c(=N/c4ccncc4)cc-3oc2c1	7.5	5
Nc1ccc2nc3c4ccccc4/c(=N/c4ccncc4)cc-3oc2c1	24	17.1
CN(C)c1ccc2nc3ccc(=[N+](C)C)cc-3sc2c1 [METHYLENE BLUE CATION]	4.2	5.2
